Data taken from patent US20250312329A1, “MODIFIED RELEASE NICORANDIL COMPOUND FORMULATIONS” (AUXILIUS PHARMA SPOLKA Z OGRANICZONA ODPOWIEDZIALNOSCIA, priority 2021, published 2025).

Legend:
[1] = Excipient/API powder blend stability: impurities and NCD content initially and after storage; format: physicochemical
Description: To better understand the stability of nicorandil formulations according to the invention at an ingredient level, the following powder blend combinations were generated and analyzed: • NCD+HPMC • NCD+Starch • NCD+MCC • NCD+Magnesium stearate • NCD+Mannitol (not used in current formulation) • NCD only […] These compositions were further analyzed (N=2) for impurities ([…]) and NCD content both initially and after 2 or 4 weeks of storage at accelerated stability testing conditions (40° C.) (per US FDA typical standards/procedures) or room temperature conditions (25° C.). Unknown impurities (“Unk. Imps.”) were also measured and the sum of all measured impurities (“Sum Imps.”) calculated.

[2] = test system: patients with stable angina; conditions: cited from earlier work
[3] = Loss of drying (LOD) of nicorandil/excipient powder blends; format: physicochemical; conditions: 1:1 excipient/API powder blend
Text: To better understand the stability of nicorandil formulations according to the invention at an ingredient level, the following powder blend combinations were generated and analyzed: • NCD+HPMC • NCD+Starch • NCD+MCC • NCD+Magnesium stearate • NCD+Mannitol (not used in current formulation) • NCD only […]

[4] = in vivo; cited from earlier work

Structure (SMILES): O=C(NCCO[N+](=O)[O-])c1cccnc1 [Nicorandil, N-[2-(Nitro-oxy)ethyl]-3-pyridine carboxamide]
- Imp A ([1]; T = 0): 0.00 Weight Percent
- Imp B ([1]; T = 0): 0.01 Weight Percent
- Imp C ([1]; T = 0): 0.01 Weight Percent
- Imp D ([1]; T = 0): 0.11 Weight Percent
- Mass Balance ([1]; T = 0): 98.60 Weight Percent
- NCD ([1]; T = 0): 98.40 Weight Percent
- Sum Imps. ([1]; T = 0): 0.20 Weight Percent
- Unk. Imps. ([1]; T = 0): 0.06 Weight Percent
- Imp A ([1]; T = 2 weeks, 40° C.): 0.00 Weight Percent
- Imp B ([1]; T = 2 weeks, 40° C.): 0.04 Weight Percent
- Imp C ([1]; T = 2 weeks, 40° C.): 0.05 Weight Percent
- Imp D ([1]; T = 2 weeks, 40° C.): 0.22 Weight Percent
- Mass Balance ([1]; T = 2 weeks, 40° C.): 100.01 Weight Percent
- NCD ([1]; T = 2 weeks, 40° C.): 99.52 Weight Percent
- Sum Imps. ([1]; T = 2 weeks, 40° C.): 0.49 Weight Percent
- Unk. Imps. ([1]; T = 2 weeks, 40° C.): 0.18 Weight Percent
- Imp A ([1]; T = 4 weeks, 25° C.): 0.00 Weight Percent
- Imp B ([1]; T = 4 weeks, 25° C.): 0.00 Weight Percent
- Imp C ([1]; T = 4 weeks, 25° C.): 0.00 Weight Percent
- Imp D ([1]; T = 4 weeks, 25° C.): 0.12 Weight Percent
- Mass Balance ([1]; T = 4 weeks, 25° C.): 108.41 Weight Percent
- NCD ([1]; T = 4 weeks, 25° C.): 108.13 Weight Percent
- Sum Imps. ([1]; T = 4 weeks, 25° C.): 0.29 Weight Percent
- Unk. Imps. ([1]; T = 4 weeks, 25° C.): 0.17 Weight Percent
- composite endpoint of coronary heart disease death, non-fatal MI or unplanned hospital admission with chest pain ([2]; IONA study, versus placebo, average 1.6 years): reduction in the composite endpoint
- reduction in all-cause mortality ([2]; JCAD study, average 2.7 years): 35%
- reduction in cardiac death ([2]; JCAD study, average 2.7 years): 56%
- LOD (%) [3]: 0.28%
- elimination half-life [4]: approximately 1 hour
